Laboratory results from patent US20230295164A1, “COMPOUNDS HAVING ANTIBACTERIAL ACTIVITY” (The Trustees of Princeton University, priority 2020, published 2023).
In brackets after ≈: the same amount, converted by molar mass.

How the values were obtained:
[1] = system: Acinetobacter baumannii, ATCC 17978; assay: MIC testing, broth microdilution in CAMHB; assay type: cell-based; conditions: 18-20 hr, lowest concentration that completely inhibits visible growth; for MIC: Acinetobacter baumannii, ATCC17978, 37° C., read-out: Compound MICs, Acinetobacter baumannii, ATCC 17978; for Compound MICs, Acinetobacter baumannii, ATCC 17978: 37° C.
Experimental: (§1) Compounds 1-71 were subsequently tested to determine MICs of the compounds relative to the following five species/strains of bacteria: Staphylococcus aureus, NRS384; Enterococcus faecalis, ATCC 51575; Salmonella typhimurium, CMCC 50115; Escherichia coli, ATCC BAA-198; and Acinetobacter baumannii, ATCC 17978. MIC testing of compounds was conducted according to the following protocol.
(§2) For each strain to be tested, made fresh streaks onto CAMHA from −80° C. glycerol stocks.
(§3) • CAMHB: Dissolved 22 g of the powder per 1 L of purified water. Mixed well. Autoclaved at 121° C. for 10 minutes. Stored at room temperature (RT) for no more than 1 week. • Saline: Dissolved 9 g of the powder per 1 L of purified water. Mixed well. Autoclaved at 121° C. for 30 minutes. Stored at room temperature (RT) for no more than 1 week.
(§4) Prepared the stock solutions of the tested compounds.
(§5) For compounds: • a) Dispensed 20 ul compound to the wells in column 1, and 20 ul DMSO to the wells in column 2 to 12; • b) Diluted the compounds by transferring 10 ul compounds from column 1 to 20 ul DMSO in column 2; mix with pipette. • c) Repeated until column 11 to get 3×serial dilutions. Column 12 was the DMSO control.
(§6) A multichannel pipette was used to deliver 1 μl of the diluted compound into each well of the corresponding daughter plate.
(§7) Scraped 4-8 single colonies from an agar plate into 5 ml saline in a 14 ml Falcon conical tube. Vortexed the tube to suspend the bacteria. Adjusted the turbidity to ˜0.2 (corresponding to 0.5 McFarland) with an Ultrospec 10 Cell density meter.
(§8) The strain suspension was diluted 200-fold in CAMHB medium and dispense into a sterile reservoir. A multichannel pipette was then used to deliver 99 μl of the diluted inocula into each well of the corresponding daughter plate.
(§9) Incubate the daughter plates at 37° C., 85% humidity for 18-20 hr.
(§10) A magnifying mirror device was used for ease of scoring the presence or absence of growth in the wells. 96-well micro-plates were photographed.

[2] = system: Enterococcus faecalis, ATCC 51575; assay: MIC testing, broth microdilution in CAMHB; assay type: cell-based; conditions: 18-20 hr, lowest concentration that completely inhibits visible growth; for MIC: Enterococcus faecalis, ATCC51575, 37° C., read-out: Compound MICs, Enterococcus faecalis, ATCC 51575; for Compound MICs, Enterococcus faecalis, ATCC 51575: 37° C.
Experimental: as §1, §2, §3, §4, §5, §6, §7, §8, §9, §10

[3] = system: Salmonella typhimurium, CMCC 50115; assay: MIC testing, broth microdilution in CAMHB; assay type: cell-based; conditions: 37° C., 18-20 hr, lowest concentration that completely inhibits visible growth; for MIC: Salmonella enterica, read-out: Compound MICs, Salmonella typhimurium, CMCC 50115
Experimental: as §1, §2, §3, §4, §5, §6, §7, §8, §9, §10

[4] = system: Escherichia coli, ATCC BAA-198; assay: MIC testing, broth microdilution in CAMHB; assay type: cell-based; conditions: 18-20 hr, lowest concentration that completely inhibits visible growth; for MIC: Escherichia coli, ATCCBAA198, 37° C., read-out: Compound MICs, Escherichia coli, ATCC BAA-198; for Compound MICs, Escherichia coli, ATCC BAA-198: 37° C.
Experimental: as §1, §2, §3, §4, §5, §6, §7, §8, §9, §10

[5] = system: Staphylococcus aureus, NRS384; assay: MIC testing, broth microdilution in CAMHB; assay type: cell-based; conditions: 18-20 hr, lowest concentration that completely inhibits visible growth; for MIC: Staphylococcus aureus, NRS384, 37° C., read-out: Compound MICs, Staphylococcus aureus, NRS384; for Compound MICs, Staphylococcus aureus, NRS384: 37° C.
Experimental: as §1, §2, §3, §4, §5, §6, §7, §8, §9, §10

P. aeruginosa PA14 = assay: MIC testing against P. aeruginosa PA14, same protocol; assay type: cell-based, Pseudomonas aeruginosa; conditions: according to the protocol above
Experimental: For each strain to be tested, made fresh streaks onto CAMHA from −80° C. glycerol stocks. • CAMHB: Dissolved 22 g of the powder per 1 L of purified water. Mixed well. Autoclaved at 121° C. for 10 minutes. Stored at room temperature (RT) for no more than 1 week. • Saline: Dissolved 9 g of the powder per 1 L of purified water. Mixed well. Autoclaved at 121° C. for 30 minutes. Stored at room temperature (RT) for no more than 1 week. Prepared the stock solutions of the tested compounds. For compounds: • a) Dispensed 20 ul compound to the wells in column 1, and 20 ul DMSO to the wells in column 2 to 12; • b) Diluted the compounds by transferring 10 ul compounds from column 1 to 20 ul DMSO in column 2; mix with pipette. • c) Repeated until column 11 to get 3×serial dilutions. Column 12 was the DMSO control. A multichannel pipette was used to deliver 1 μl of the diluted compound into each well of the corresponding daughter plate. Scraped 4-8 single colonies from an agar plate into 5 ml saline in a 14 ml Falcon conical tube. Vortexed the tube to suspend the bacteria. Adjusted the turbidity to ˜0.2 (corresponding to 0.5 McFarland) with an Ultrospec 10 Cell density meter. The strain suspension was diluted 200-fold in CAMHB medium and dispense into a sterile reservoir. A multichannel pipette was then used to deliver 99 μl of the diluted inocula into each well of the corresponding daughter plate. Incubate the daughter plates at 37° C., 85% humidity for 18-20 hr. […] A magnifying mirror device was used for ease of scoring the presence or absence of growth in the wells. 96-well micro-plates were photographed. […]

Row | SMILES | MIC [1] [mg/L] | MIC [2] [mg/L] | MIC [3] [mg/L] | MIC [4] [mg/L] | MIC [5] [mg/L] | MIC (P. aeruginosa PA14; Pseudomonas aeruginosa, PA14, read-out: MICs against P. aeruginosa PA14) [mg/L] | Compound MICs, Acinetobacter baumannii, ATCC 17978 [1] [µg/mL] | Compound MICs, Enterococcus faecalis, ATCC 51575 [2] [µg/mL] | Compound MICs, Salmonella typhimurium, CMCC 50115 [3] [µg/mL] | Compound MICs, Escherichia coli, ATCC BAA-198 [4] [µg/mL] | Compound MICs, Staphylococcus aureus, NRS384 [5] [µg/mL] | MICs against P. aeruginosa PA14 (P. aeruginosa PA14) [µg/mL]
1 | COc1ccnc(Cn2ccc3c4c(N)nc(N)nc4ccc32)c1 [Compound 63] | 21.3 (≈ 66.5 µM) | 0.09 (≈ 0.281 µM) | 0.26 (≈ 0.812 µM) | 21.3 (≈ 66.5 µM) | 0.26 (≈ 0.812 µM) |  |  |  |  |  |  | 
2 | COc1ccc(Cn2ccc3c4c(N)nc(N)nc4ccc32)c(Cl)c1 [Compound 65] |  |  |  |  |  |  | 7.11 | 0.01 | 0.26 | 7.11 | 0.09 | 
3 | COc1cc(Cn2ccc3c4c(N)nc(N)nc4ccc32)cc(OC)c1 [Compound 66] |  |  |  |  |  |  | 7.11 | 0.01 | 0.26 | 2.37 | 0.09 | 
4 | COc1cccc(Cn2ccc3c4c(N)nc(N)nc4ccc32)n1 [Compound 67] |  |  |  |  |  |  | 0.26 | 0.01 | 0.26 | 2.37 | 0.09 | 
5 | Nc1nc(N)c2c(ccc3c2ccn3Cc2cccc(Cl)c2Cl)n1 [Compound 68] |  |  |  |  |  |  | 2.37 | 0.01 | 0.26 | 2.37 | 0.03 | 
6 | COc1ccc(Br)cc1Cn1ccc2c3c(N)nc(N)nc3ccc21 [Compound 70] | 2.37 (≈ 5.95 µM) | ≤ 0.001 | 0.26 (≈ 0.653 µM) | 2.37 (≈ 5.95 µM) | 0.01 (≈ 0.0251 µM) |  |  |  |  |  |  | 
7 | COc1cc(Cn2ccc3c4c(N)nc(N)nc4ccc32)cc(OC)c1OC [Compound 71] | 7.11 (≈ 18.7 µM) | 0.01 (≈ 0.0264 µM) | 0.79 (≈ 2.08 µM) | 2.37 (≈ 6.25 µM) | 0.03 (≈ 0.0791 µM) |  |  |  |  |  |  | 

Second part, the molecule after the results:

Row | MIC [1] [mg/L] | MIC [2] [mg/L] | MIC [3] [mg/L] | MIC [4] [mg/L] | MIC [5] [mg/L] | MIC (P. aeruginosa PA14; Pseudomonas aeruginosa, PA14, read-out: MICs against P. aeruginosa PA14) [mg/L] | Compound MICs, Acinetobacter baumannii, ATCC 17978 [1] [µg/mL] | Compound MICs, Enterococcus faecalis, ATCC 51575 [2] [µg/mL] | Compound MICs, Salmonella typhimurium, CMCC 50115 [3] [µg/mL] | Compound MICs, Escherichia coli, ATCC BAA-198 [4] [µg/mL] | Compound MICs, Staphylococcus aureus, NRS384 [5] [µg/mL] | MICs against P. aeruginosa PA14 (P. aeruginosa PA14) [µg/mL] | SMILES
8 | 0.79 (≈ 2.57 µM) | 0.01 (≈ 0.0325 µM) | 0.088 (≈ 0.286 µM) | 2.37 (≈ 7.71 µM) | 0.088 (≈ 0.286 µM) | 25 (≈ 81.3 µM) |  |  |  |  |  |  | Nc1nc(N)c2c(ccc3c2ccn3Cc2ccc(F)cc2)n1 [Compound 10]
9 |  |  |  |  |  |  | 2.37 | 0.09 | 0.26 | 7.11 | 0.26 | 45 | Nc1nc(N)c2c(ccc3c2ccn3-c2ccc(F)cc2)n1 [Compound 40]
10 |  |  |  |  |  |  | 2.37 | 0.01 | 0.003 | 7.11 | 0.26 | 6.3 | Nc1nc(N)c2c(ccc3c2ccn3Cc2ccc(F)nc2)n1 [Compound 45]
11 |  |  |  |  |  |  | 0.79 | ≤0.001 | 0.003 | 7.11 | 0.09 | 12.5 | Nc1nc(N)c2c(ccc3c2ccn3Cc2cccc(F)n2)n1 [Compound 48]
12 |  |  |  |  |  |  | >64 | 21.3 | 64 | 64 | 7.11 |  | Nc1nc(N)c2ccc(NCc3ccc(F)cc3)cc2n1 [Compound 64]
13 |  |  |  |  |  |  | 7.11 | 0.03 | 0.26 | 2.37 | 0.09 |  | Nc1nc(N)c2c(ccc3c2ccn3Cc2ccc3c(c2)OCO3)n1 [Compound 69]
